From US10131652B2, “Pyrimidinyloxy benzene derivatives as herbicides” (E. I. DU PONT DE NEMOURS AND COMPANY, priority 2014, dated 2018)
Where two headings read alike, the source gives them in different places.

Legend:
Assay in all cases: Test D pre-/postemergence plant response
Assay type in all cases: in vivo
[1] = system: soybean (Glycine max); details: Glycine max; for plant injury at 62 g/ha: 62 g ai/ha; for plant injury at 125 g/ha: 125 g ai/ha
Procedure, shortened: (§1)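 Pre-/post-emergence greenhouse test. Pre: seeded loam+sand, sprayed same day. Post: 1–4 leaf plants (2–18 cm), peat/vermiculite mix. Formulation: non-phytotoxic solvent + surfactant. Scored visually d13–15, 0–100 vs control.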

[2] = system: galium (catchweed bedstraw, Galium aparine); details: Galium; for pest or weed control at 16 g/ha: 16 g ai/ha; for pest or weed control at 31 g/ha: 31 g ai/ha; for pest or weed control at 62 g/ha: 62 g ai/ha; for pest or weed control at 125 g/ha: 125 g ai/ha
Procedure, shortened: as §1

[3] = system: large (Lg) crabgrass (Digitaria sanguinalis); details: Digitaria sanguinalis; for pest or weed control at 16 g/ha: 16 g ai/ha; for pest or weed control at 31 g/ha: 31 g ai/ha; for pest or weed control at 62 g/ha: 62 g ai/ha; for pest or weed control at 125 g/ha: 125 g ai/ha
Procedure, shortened: as §1

[4] = system: Italian ryegrass (Lolium multiflorum); details: Lolium multiflorum; for pest or weed control at 16 g/ha: 16 g ai/ha; for pest or weed control at 31 g/ha: 31 g ai/ha; for pest or weed control at 62 g/ha: 62 g ai/ha; for pest or weed control at 125 g/ha: 125 g ai/ha
Procedure, shortened: as §1

[5] = system: winter wheat (Triticum aestivum); details: Triticum aestivum; for plant injury at 16 g/ha: 16 g ai/ha; for plant injury at 31 g/ha: 31 g ai/ha; for plant injury at 62 g/ha: 62 g ai/ha; for plant injury at 125 g/ha: 125 g ai/ha
Procedure, shortened: as §1

[6] = system: lambsquarters (Chenopodium album); details: Chenopodium album; for pest or weed control at 16 g/ha: 16 g ai/ha; for pest or weed control at 31 g/ha: 31 g ai/ha; for pest or weed control at 62 g/ha: 62 g ai/ha; for pest or weed control at 125 g/ha: 125 g ai/ha
Procedure, shortened: as §1

[7] = system: yellow nutsedge (Cyperus esculentus); details: Cyperus; for pest or weed control at 16 g/ha: 16 g ai/ha; for pest or weed control at 31 g/ha: 31 g ai/ha; for pest or weed control at 62 g/ha: 62 g ai/ha; for pest or weed control at 125 g/ha: 125 g ai/ha
Procedure, shortened: as §1

[8] = post-emergence, Postemergence, scale 0 to 100, 0 no effect, 100 complete control, read-out: Plant response rating, Galium
[9] = pre-emergence, Preemergence, scale 0 to 100 (0 no effect, 100 complete control), read-out: Plant response rating, Galium
[10] = post-emergence, Postemergence, scale 0 to 100, 0 no effect, 100 complete control, read-out: Plant response rating, Crabgrass, Large
[11] = pre-emergence, Preemergence, scale 0 to 100 (0 no effect, 100 complete control), read-out: Plant response rating, Crabgrass, Large
[12] = pre-emergence, Preemergence, scale 0 to 100 (0 no effect, 100 complete control), read-out: Plant response rating, Ryegrass, Italian
[13] = pre-emergence, Preemergence, scale 0 to 100 (0 no effect, 100 complete control), read-out: Plant response rating, Wheat
[14] = pre-emergence, Preemergence, scale 0 to 100 (0 no effect, 100 complete control), read-out: Plant response rating, Lambsquarters
[15] = pre-emergence, Preemergence, scale 0 to 100 (0 no effect, 100 complete control), read-out: Plant response rating, Nutsedge, Yellow

Which plant injury at 62 g/ha ([1]; post-emergence, Postemergence, scale 0 to 100, 0 no effect, 100 complete control, read-out: Soybean plant response rating) does the source give for FC(F)(F)c1cc(-c2ccccc2Oc2ncc(Cl)cn2)no1 [Compound 200, 5-chloro-2-[2-[5-(trifluoromethyl)-3-isoxazolyl]phenoxy]pyrimidine] here?
The plant injury at 62 g/ha was 90%.

What about the plant injury at 125 g/ha ([1]; post-emergence, Postemergence, scale 0 to 100, 0 no effect, 100 complete control, read-out: Plant response rating, Soybean) of the same molecule?
Its plant injury at 125 g/ha is 98%.

What about the plant injury at 125 g/ha ([1]; pre-emergence, Preemergence, read-out: Plant response rating (scale 0 to 100), Soybean) of the same molecule?
The plant injury at 125 g/ha was 85%.

What about the plant injury at 16 g/ha ([1]; pre-emergence, Preemergence, 16 g ai/ha, scale 0 to 100 (0 no effect, 100 complete control), read-out: Plant response rating, Soybean) of the same molecule?
The plant injury at 16 g/ha was 100%.

What about the plant injury at 31 g/ha ([1]; pre-emergence, Preemergence, 31 g ai/ha, scale 0 to 100 (0 no effect, 100 complete control), read-out: Plant response rating, Soybean) of the same molecule?
Its plant injury at 31 g/ha is 10%.

What about the plant injury at 62 g/ha ([1]; pre-emergence, Preemergence, scale 0 to 100 (0 no effect, 100 complete control), read-out: Plant response rating, Soybean) of the same molecule?
The plant injury at 62 g/ha was 40%.

What about the pest or weed control at 16 g/ha ([2]; post-emergence, Postemergence, read-out: Plant response rating (scale 0 to 100), Galium) of the same molecule?
Its pest or weed control at 16 g/ha is 75%.

And the pest or weed control at 31 g/ha ([2]; post-emergence, Postemergence, scale 0 to 100 (0 no effect, 100 complete control), read-out: Galium plant response rating)?
The pest or weed control at 31 g/ha was 100%.

What about the pest or weed control at 62 g/ha [2, 8] of the same molecule?
Its pest or weed control at 62 g/ha is 100%.

And the pest or weed control at 125 g/ha [2, 8]?
Its pest or weed control at 125 g/ha is 100%.

What about the pest or weed control at 125 g/ha ([2]; pre-emergence, Preemergence, read-out: Plant response rating (scale 0 to 100), Galium) of the same molecule?
Its pest or weed control at 125 g/ha is 95%.

And the pest or weed control at 16 g/ha [2, 9]?
The pest or weed control at 16 g/ha was 85%.

And the pest or weed control at 31 g/ha [2, 9]?
The pest or weed control at 31 g/ha was 98%.

What about the pest or weed control at 62 g/ha [2, 9] of the same molecule?
The pest or weed control at 62 g/ha was 100%.

What about the pest or weed control at 16 g/ha ([3]; post-emergence, Postemergence, read-out: Plant response rating (scale 0 to 100), Crabgrass, Large) of the same molecule?
Its pest or weed control at 16 g/ha is 10%.

What about the pest or weed control at 31 g/ha ([3]; post-emergence, Postemergence, scale 0 to 100 (0 no effect, 100 complete control), read-out: Crabgrass, Large plant response rating) of the same molecule?
Its pest or weed control at 31 g/ha is 10%.

What about the pest or weed control at 62 g/ha [3, 10] of the same molecule?
Its pest or weed control at 62 g/ha is 25%.

And the pest or weed control at 125 g/ha [3, 10]?
The pest or weed control at 125 g/ha was 35%.

What about the pest or weed control at 125 g/ha ([3]; pre-emergence, Preemergence, read-out: Plant response rating (scale 0 to 100), Crabgrass, Large) of the same molecule?
The pest or weed control at 125 g/ha was 100%.

What about the pest or weed control at 16 g/ha [3, 11] of the same molecule?
The pest or weed control at 16 g/ha was 98%.

What about the pest or weed control at 31 g/ha [3, 11] of the same molecule?
The pest or weed control at 31 g/ha was 100%.

What about the pest or weed control at 62 g/ha [3, 11] of the same molecule?
Its pest or weed control at 62 g/ha is 100%.

What about the pest or weed control at 16 g/ha ([4]; post-emergence, Postemergence, read-out: Plant response rating (scale 0 to 100), Ryegrass, Italian) of the same molecule?
Its pest or weed control at 16 g/ha is 20%.

What about the pest or weed control at 31 g/ha ([4]; post-emergence, Postemergence, scale 0 to 100 (0 no effect, 100 complete control), read-out: Ryegrass, Italian plant response rating) of the same molecule?
Its pest or weed control at 31 g/ha is 25%.

And the pest or weed control at 62 g/ha ([4]; post-emergence, Postemergence, scale 0 to 100, 0 no effect, 100 complete control, read-out: Ryegrass, Italian plant response rating)?
Its pest or weed control at 62 g/ha is 35%.

And the pest or weed control at 125 g/ha ([4]; post-emergence, Postemergence, scale 0 to 100, 0 no effect, 100 complete control, read-out: Plant response rating, Ryegrass, Italian)?
Its pest or weed control at 125 g/ha is 35%.

What about the pest or weed control at 125 g/ha ([4]; pre-emergence, Preemergence, read-out: Plant response rating (scale 0 to 100), Ryegrass, Italian) of the same molecule?
The pest or weed control at 125 g/ha was 90%.

And the pest or weed control at 16 g/ha [4, 12]?
Its pest or weed control at 16 g/ha is 30%.

What about the pest or weed control at 31 g/ha [4, 12] of the same molecule?
The pest or weed control at 31 g/ha was 80%.

And the pest or weed control at 62 g/ha [4, 12]?
Its pest or weed control at 62 g/ha is 85%.

And the plant injury at 16 g/ha ([5]; post-emergence, Postemergence, read-out: Plant response rating (scale 0 to 100), Wheat)?
Its plant injury at 16 g/ha is 5%.

And the plant injury at 31 g/ha ([5]; post-emergence, Postemergence, scale 0 to 100 (0 no effect, 100 complete control), read-out: Wheat plant response rating)?
The plant injury at 31 g/ha was 10%.

And the plant injury at 62 g/ha ([5]; post-emergence, Postemergence, scale 0 to 100, 0 no effect, 100 complete control, read-out: Wheat plant response rating)?
Its plant injury at 62 g/ha is 25%.

What about the plant injury at 125 g/ha ([5]; post-emergence, Postemergence, scale 0 to 100, 0 no effect, 100 complete control, read-out: Plant response rating, Wheat) of the same molecule?
The plant injury at 125 g/ha was 20%.

And the plant injury at 125 g/ha ([5]; pre-emergence, Preemergence, read-out: Plant response rating (scale 0 to 100), Wheat)?
Its plant injury at 125 g/ha is 40%.

And the plant injury at 16 g/ha [5, 13]?
Its plant injury at 16 g/ha is 0%.

And the plant injury at 31 g/ha [5, 13]?
The plant injury at 31 g/ha was 5%.

What about the plant injury at 62 g/ha [5, 13] of the same molecule?
The plant injury at 62 g/ha was 20%.

What about the pest or weed control at 16 g/ha ([6]; post-emergence, Postemergence, read-out: Plant response rating (scale 0 to 100), Lambsquarters) of the same molecule?
The pest or weed control at 16 g/ha was 70%.

What about the pest or weed control at 31 g/ha ([6]; post-emergence, Postemergence, scale 0 to 100 (0 no effect, 100 complete control), read-out: Lambsquarters plant response rating) of the same molecule?
The pest or weed control at 31 g/ha was 80%.

And the pest or weed control at 62 g/ha ([6]; post-emergence, Postemergence, scale 0 to 100, 0 no effect, 100 complete control, read-out: Lambsquarters plant response rating)?
The pest or weed control at 62 g/ha was 85%.

What about the pest or weed control at 125 g/ha ([6]; post-emergence, Postemergence, scale 0 to 100, 0 no effect, 100 complete control, read-out: Plant response rating, Lambsquarters) of the same molecule?
The pest or weed control at 125 g/ha was 98%.

What about the pest or weed control at 125 g/ha ([6]; pre-emergence, Preemergence, read-out: Plant response rating (scale 0 to 100), Lambsquarters) of the same molecule?
Its pest or weed control at 125 g/ha is 100%.

What about the pest or weed control at 16 g/ha [6, 14] of the same molecule?
The pest or weed control at 16 g/ha was 75%.

What about the pest or weed control at 31 g/ha [6, 14] of the same molecule?
The pest or weed control at 31 g/ha was 98%.

What about the pest or weed control at 62 g/ha [6, 14] of the same molecule?
Its pest or weed control at 62 g/ha is 95%.

What about the pest or weed control at 16 g/ha ([7]; post-emergence, Postemergence, read-out: Plant response rating (scale 0 to 100), Nutsedge, Yellow) of the same molecule?
The pest or weed control at 16 g/ha was 5%.

And the pest or weed control at 31 g/ha ([7]; post-emergence, Postemergence, scale 0 to 100 (0 no effect, 100 complete control), read-out: Nutsedge, Yellow plant response rating)?
The pest or weed control at 31 g/ha was 5%.

What about the pest or weed control at 62 g/ha ([7]; post-emergence, Postemergence, scale 0 to 100, 0 no effect, 100 complete control, read-out: Nutsedge, Yellow plant response rating) of the same molecule?
Its pest or weed control at 62 g/ha is 5%.

And the pest or weed control at 125 g/ha ([7]; post-emergence, Postemergence, scale 0 to 100, 0 no effect, 100 complete control, read-out: Plant response rating, Nutsedge, Yellow)?
The pest or weed control at 125 g/ha was 15%.

What about the pest or weed control at 125 g/ha ([7]; pre-emergence, Preemergence, read-out: Plant response rating (scale 0 to 100), Nutsedge, Yellow) of the same molecule?
The pest or weed control at 125 g/ha was 15%.

And the pest or weed control at 16 g/ha [7, 15]?
The pest or weed control at 16 g/ha was 0%.

And the pest or weed control at 31 g/ha [7, 15]?
The pest or weed control at 31 g/ha was 0%.

What about the pest or weed control at 62 g/ha [7, 15] of the same molecule?
The pest or weed control at 62 g/ha was 0%.
